Patent publication US9005581B2, “Modified pyrazine derivatives and uses thereof” (MediBeacon, LLC, priority 2008, dated 2015)
Marks after values point to notes of the source that are not given here.

How the values were obtained:
[1] = Photophysical properties (fluorescence excitation/emission in PBS); format: physicochemical; details: 10 μM solution in PBS
Protocol: In general, renally excretable compounds are dissolved in PBS buffer to form a 2 mM stock solution. The UV absorbance properties are determined on a 100 μM solution in PBS using a UV-3101PC UV-Vis-NIR Scanning spectrophotometer system from Shimadzu. The fluorescence properties (λex, λem, and CPS at λem) are determined on a 10 μM solution in PBS using a Fluorolog-3 spectrofluorometer system from Jobin Yvon Horiba. The percent plasma protein binding is determined on a 20 μM compound solution in rat plasma incubated at 37° C. for 1 h. The separation of free from bound is made using an Amicon Centrifree YM-30 device (Regenerated Cellulose 30,000 MWCO) and a Z400K Refrigerated Universal Centrifuge from Hermle. The concentration of protein-free is determined via HPLC analysis using a set of external calibration standards and fluorescence detection.

[2] = Probenecid inhibition studies (invasive pharmacokinetics after probenecid); format: in vivo, Sprague-Dawley rats; details: rat plasma, 70 mg/kg Probenecid 10 min prior to test compound, values in brackets, mean ± SEM (n)
Protocol: (§1) Male Sprague-Dawley rats (330-380 g) are anesthetized by Inactin (I.P.). Rats are surgically instrumented with a trachea tube (PE-190) to facilitate breathing and femoral artery and vein catheters (PE-50 filled with 20 units/mL heparinized saline) for blood sampling and drug administration respectively. After administration of 1 mL of a 2 mM solution of agent, approximately 200 μL blood is sampled and placed into a heparinized tube (Microtainer Brand Tube w/Lithium Heparin, BD 365971) at 0, 1, 6, 12, 18, 30, 45, 60, 90, 120 min. The concentration of compound in each centrifuged plasma sample is determined via HPLC analysis using a set of external calibration standards and fluorescence detection. The resulting pharmacokinetic parameters of the compound are analyzed using WinNonLin pharmacokinetic modeling software (Pharsight, Mountain View, Calif.). This method is used to detect renally excretable compounds of the invention and FIG. 8B provides a plot illustrating invasive PK (plasma concentration) as a function of time following delivery of a renally excretable compound.
Six male Sprague-Dawley rats are treated in the same manner as described above in the invasive pharmacokinetic studies. These 6 rats receive 70 mg/kg Probenecid (Sigma-Aldrich; St. Louis, Mo.) 10 min prior to the test compound; this administration is flushed with 0.2 ml NaCl.

[3] = Invasive pharmacokinetic studies (plasma concentration); format: in vivo, Sprague-Dawley rats; details: rat plasma, 1 mL of 2 mM solution i.v., mean ± SEM (n); for clearance: male, Sprague-Dawley, iv, 1 mL of a 2 mM solution, read-out: Pharmacokinetics Clearance
Protocol: as §1

[4] = Non-invasive optical pharmacokinetic studies (fluorescence at the ear); format: in vivo, Sprague-Dawley rats; details: rat ear fluorescence, 1 mL of 2 mM solution into tail vein; mean ± SEM (n)
Protocol: Male Sprague-Dawley rats (330-380 g) are anesthetized by Inactin (I.P.) or 2% Isoflurane gas anesthesia delivered by a small rodent gas anesthesia machine (RC2, Vetequip, Pleasanton, Calif.). The animals are placed on a heated board where temperature is maintained between 36-38° C. One ear lobe is glued flat to a glass slide positioned approximately 2 mm beneath a fiber optic bundle for recording fluorescence from a test compound passing through the ear. After a 100 second baseline recording, 1 mL of a 2 mM solution is injected into the tail-vein of the rat and the fluorescence signal corresponding to plasma and tissue distribution and subsequent renal clearance of the compound is monitored at the ear. The pharmacokinetic parameters of the compounds are analyzed using WinNonLin pharmacokinetic modeling software (Pharsight, Mountain View, Calif.) and Microsoft (Redmond, Wash.) Excel. This method is used to detect renally excretable compounds of the invention and FIG. 8A provides a plot illustrating non-invasive in vivo fluorescence as a function of time following delivery of a renally excretable compound.
A nominal 473 nm solid state laser source (100) is employed (Power Technology model LDCU12/7314). The laser source is directed into one leg (110) of a silica bifurcated fiber optic bundle (120) (Oriel #77565). The common end of this bifurcated bundle (130) is placed approximately 2 mm from the rat ear (140). The second leg of the bifurcated fiber optic bundle (150) is fitted with a collimating beam probe (160) (Oriel #77644). A long pass filter (170) (Semrock LP02-488RS-25) and narrow band interference filter (180) (Semrock FF01-593/40-25) are placed in front of a photomultiplier tube (190) (Hamamatsu photosensor module H7827-011).
A chopper (200) (Stanford Research Systems model SR540) is placed after the laser and before the launch into the bifurcated cable. The output of the photosensor is connected to a lock-in amplifier (210) (Stanford Research Systems model SR830). The lock-in output is digitized (220) (National Instruments NI-USB-6211) and the digitized data is acquired by computer using LabVIEW® data acquisition software (230).

[5] = Urine elimination studies; format: in vivo, Sprague-Dawley rats; details: rat, 1 mL of 2 mM in PBS by tail vein injection, mean ± SEM (n)
Protocol: Rat urine elimination studies are conducted in either conscious or anesthetized Sprague-Dawley rats. The test compound (1 mL, 2 mM in PBS) is administered by tail vein injection into conscious, restrained rats, with subsequent collection of urine at the time points of 2, 4 and 6 h post injection. The metabolic cages are washed with water to maximize the recovery of urine discharged at each time point. Alternatively, rats are anesthetized with 100 mg/kg Inactin intraperitoneally, a trachea tube is inserted to maintain adequate respiration, and 1 mL of test compound is injected into the lateral tail vein. Rats are placed on 37° C. heating pad during the entire experiment. At 6 h post injection, the abdomen is opened, and the urine is removed from the bladder using a 21 gauge needle and a 3 cc syringe. Quantitation of each compound in urine is performed via HPLC analysis using a set of external calibration standards and fluorescence detection. The percent recovery of compound in urine at each time point is calculated based on the balance of mass.

| Photophysical Properties Emission λmax [1] [nm] | Photophysical Properties Excitation λmax [1] [nm] | clearance ([2]; male, Sprague-Dawley, iv, with probenecid 70 mg/kg, 10 min prior to the test compound, read-out: Pharmacokinetics Clearance, probenecid challenge experiment) [mL/min] | Pharmacokinetics T1/2β, probenecid challenge experiment [2] | clearance [3] [mL/min] | Pharmacokinetics T1/2β [3] | Tissue Clearance (Optical) T1/2β [4] | Percent found in Urine (6 hrs) [5] | SMILES |
| --- | --- | --- | --- | --- | --- | --- | --- | --- |
| 605 | 500 | 3.3 | [18.0 ± 0.3 (3)]^c min | 3.1 ± 0.2 | 18.8 ± 0.6 (3) min | 19.9 ± 2.4 (3) min | 97 ± 0.4 (3)^b Percent | COCCOCCOCCOCCOCCOCCOCCOCCOCCOCCOCCOCCCNc1nc(C(=O)NCCOCCOCCOCCOCCOCCOCCOCCOCCOCCOCCOCCOC)c(NCCCOCCOCCOCCOCCOCCOCCOCCOCCOCCOCCOCCOC)nc1C(=O)NCCOCCOCCOCCOCCOCCOCCOCCOCCOCCOCCOCCOC [Compound 1, 3,6-Bis(2,5,8,11,14,17,20,23,26,29,32,35-dodecaoxaoctatriacontan-38-ylamino)-N^2,N^5-di(2,5,8,11,14,17,20,23,26,29,32,35-dodecaoxaheptatriacontan-37-yl)pyrazine-2,5-dicarboxamide] |
| 603 | 498 |  |  |  |  | 19.1 ± 0.8 (4) min | 92 ± 4 (3) Percent | COCCOCCOCCOCCOCCOCCOCCOCCCNc1nc(C(=O)NCCOCCOCCOCCOCCOCCOCCOCCOCCOCCOCCOCCOCCOCCOCCOCCOCCOCCOCCOCCOCCOCCOCCOCCOC)c(NCCCOCCOCCOCCOCCOCCOCCOCCOC)nc1C(=O)NCCOCCOCCOCCOCCOCCOCCOCCOCCOCCOCCOCCOCCOCCOCCOCCOCCOCCOCCOCCOCCOCCOCCOCCOC [Compound 6, 3,6-bis(2,5,8,11,14,17,20,23-octaoxahexacosan-26-ylamino)-N^2,N^5-di(2,5,8,11,14,17,20,23,26,29,32,35,38,41,44,47,50,53,56,59,62,65,68,71-tetracosaoxatriheptacontan-73-yl)pyrazine-2,5-dicarboxamide] |
| 603 | 495 |  |  |  |  | 17.6 ± 0.9 (4) min | 86 ± 7 (3) Percent | COCCOCCOCCOCCOCCOCCOCCOCCOCCOCCOCCOCCOCCOCCOCCOCCOCCOCCOCCOCCOCCOCCOCCOCCCNc1nc(C(=O)NCCOCCOCCOCCOCCOCCOCCOCCOCCOCCOCCOCCOCCOCCOCCOCCOCCOCCOCCOCCOCCOCCOCCOCCOC)c(NCCCOCCOCCOCCOCCOCCOCCOCCOCCOCCOCCOCCOCCOCCOCCOCCOCCOCCOCCOCCOCCOCCOCCOCCOC)nc1C(=O)NCCOCCOCCOCCOCCOCCOCCOCCOCCOCCOCCOCCOCCOCCOCCOCCOCCOCCOCCOCCOCCOCCOCCOCCOC [Compound 5, 3,6-bis(2,5,8,11,14,17,20,23,26,29,32,35,38,41,44,47,50,53,56,59,62,65,68,71-tetracosaoxatetraheptacontan-74-ylamino)-N^2,N^5-di(2,5,8,11,14,17,20,23,26,29,32,35,38,41,44,47,50,53,56,59,62,65,68,71-tetracosaoxatriheptacontan-73-yl)pyrazine-2,5-dicarboxamide] |
| 602 | 494 |  |  |  |  | 14.6 ± 1.1 (4) min | 97 ± 2 (3) Percent | COCCOCCOCCOCCCNc1nc(C(=O)NCCOCCOCCOCCOCCOCCOCCOCCOCCOCCOCCOCCOCCOCCOCCOCCOCCOCCOCCOCCOCCOCCOCCOCCOC)c(NCCCOCCOCCOCCOC)nc1C(=O)NCCOCCOCCOCCOCCOCCOCCOCCOCCOCCOCCOCCOCCOCCOCCOCCOCCOCCOCCOCCOCCOCCOCCOCCOC [Compound 7, 3,6-Bis(2,5,8,11-tetraoxatetradecan-14-ylamino)-N^2,N^5-di(2,5,8,11,14,17,20,23,26,29,32,35,38,41,44,47,50,53,56,59,62,65,68,71-tetracosaoxatriheptacontan-73-yl)pyrazine-2,5-dicarboxamide] |
|  |  |  |  |  |  |  | 61 ± 7 (3) Percent | COCCOCCOCCOCCOCCOCCOCCOCCCNc1nc(C(=O)N[C@H](CO)C(=O)O)c(NCCCOCCOCCOCCOCCOCCOCCOCCOC)nc1C(=O)N[C@H](CO)C(=O)O [Compound 8, 3,6-Bis(2,5,8,11,14,17,20,23-octaoxahexacosan-26-ylamino)-N^2,N^5-bis[(R)-1-carboxy-2-hydroxyethyl]pyrazine-2,5-dicarboxamide] |
|  |  |  |  |  |  |  | 29 ± 2 (3) Percent | COCCOCCOCCOCCCNc1nc(C(=O)NCC(O)CO)c(NCCCOCCOCCOCCOC)nc1C(=O)NCC(O)CO (stereo not shown) [Compound 13, 3,6-Bis(2,5,8,11-tetraoxatetradecan-14-ylamino)-N^2,N^5-bis(2,3-dihydroxypropyl)pyrazine-2,5-dicarboxamide] |
| 603 | 492 |  |  |  |  |  | 86 ± 1 (3) Percent | COCCOCCOCCOCCCNc1nc(C(=O)NCCOCCOCCOCCOCCOCCOCCOCCOCCOCCOCCOCCOC)c(NCCCOCCOCCOCCOC)nc1C(=O)NCCOCCOCCOCCOCCOCCOCCOCCOCCOCCOCCOCCOC [Compound 15, 3,6-Bis(2,5,8,11-tetraoxatetradecan-14-ylamino)-N^2,N^5-di(2,5,8,11,14,17,20,23,26,29,32,35-dodecaoxaheptatriacontan-37-yl)pyrazine-2,5-dicarboxamide] |
| 602 | 499 |  |  | 2.5 ± 0.2 | 30.5 ± 3.2 (3) min | 20.4 ± 2.0 (4) min | 89 ± 2 (3) Percent | COCCOCCOCCOCCOCCOCCOCCOCCOCCOCCOCCOCCCNc1nc(C(=O)NCCOCCOCCOCCOCCOCCOCCOCCOCCOCCOCCOCCOCCOCCOCCOCCOCCOCCOCCOCCOCCOCCOCCOCCOC)c(NCCCOCCOCCOCCOCCOCCOCCOCCOCCOCCOCCOCCOC)nc1C(=O)NCCOCCOCCOCCOCCOCCOCCOCCOCCOCCOCCOCCOCCOCCOCCOCCOCCOCCOCCOCCOCCOCCOCCOCCOC [Compound 3, 3,6-Bis(2,5,8,11,14,17,20,23,26,29,32,35-dodecaoxaoctatriacontan-38-ylamino)-N^2,N^5-di(2,5,8,11,14,17,20,23,26,29,32,35,38,41,44,47,50,53,56,59,62,65,68,71-tetracosaoxatriheptacontan-73-yl)pyrazine-2,5-dicarboxamide] |
